Reference: ChEMBL document CHEMBL1671825, “Synthesis and in Vitro and in Vivo Evaluation of Phosphoinositide-3-kinase Inhibitors” (ACS Med Chem Lett, 2011)

Experiments:
Assay type in all cases: ADME, organism-based
[1] = Half life in mouse at 10 mg/kg, po; parameters: dose 10 mg/kg, route oral; conditions: in vivo
[2] = Oral bioavailability in mouse at 10 mg/kg; conditions: in vivo
[3] = Clearance in mouse at 5 mg/kg, iv and 10 mg/kg, po; conditions: in vivo
[4] = Volume of distribution at steady state in mouse at 5 mg/kg, iv and 10 mg/kg, po; conditions: in vivo, read-out: Vdss
[5] = AUC in mouse at 10 mg/kg, po; parameters: dose 10 mg/kg, route oral; conditions: plasma
[6] = Half life in rat at 5 mg/kg, iv; parameters: dose 5 mg/kg, route intravenous; conditions: in vivo
[7] = Clearance in rat at 5 mg/kg, iv and 20 mg/kg, po; conditions: in vivo
[8] = AUC in rat at 20 mg/kg, po; parameters: dose 20 mg/kg, route oral; conditions: plasma
[9] = Volume of distribution at steady state in rat at 5 mg/kg, iv and 20 mg/kg, po; conditions: in vivo, read-out: Vdss
[10] = Oral bioavailability in rat at 20 mg/kg; conditions: in vivo

| SMILES | half-life [1] [min] | bioavailability [2] [%] | clearance [3] [mL/min/kg] | Vd [4] [L/kg] | AUC [5] [µM·h] | half-life [6] [min] | clearance [7] [mL/min/kg] | AUC [8] [µM·h] | Vd [9] [L/kg] | bioavailability [10] [%] |
| --- | --- | --- | --- | --- | --- | --- | --- | --- | --- | --- |
| COc1ccc(Nc2cc(-c3cnc(N)nc3)nc(N3CCOCC3)n2)cn1 | 282 | 87 | 99 | 1.1 | 2 |  |  |  |  |  |
| c1cncc(-c2cc(Nc3cnc4ccccc4c3)nc(N3CCOCC3)n2)c1 |  |  |  |  |  | 55 | 26 | 16 | 2.4 | 46 |
| Oc1cccc(-c2cc(Nc3cnc4ccccc4c3)nc(N3CCOCC3)n2)c1 |  |  |  |  |  | 30 | 179 | 0.03 | 6.9 | 1 |

Results, then the compound that gave them:

| half-life [1] [min] | bioavailability [2] [%] | clearance [3] [mL/min/kg] | Vd [4] [L/kg] | AUC [5] [µM·h] | half-life [6] [min] | clearance [7] [mL/min/kg] | AUC [8] [µM·h] | Vd [9] [L/kg] | bioavailability [10] [%] | SMILES |
| --- | --- | --- | --- | --- | --- | --- | --- | --- | --- | --- |
|  |  |  |  |  | 43 | 37 | 6 | 1.9 | 23 | Nc1ncc(-c2cc(Nc3cnc4ccccc4c3)nc(N3CCOCC3)n2)cn1 |
|  |  |  |  |  | 103 | 5 | 93 | 0.8 | 56 | Nc1ccc(-c2cc(Nc3cnc4ccccc4c3)nc(N3CCOCC3)n2)cn1 |
